Patent publication US11572590B2, “Methods for evaluating tumor cell spheroids using 3D microfluidic cell culture device” (Dana-Farber Cancer Institute, Inc., priority 2017, dated 2023)

Columns and labels:
[1] = tested on: CT26 spheroids (lacking immune cells); assay: Bead-based cytokine profiling of CT26 spheroids lacking immune cells; assay type: cell-based, murine; conditions: Day 1, 3, and 6
Procedure: Fresh tumor specimens (murine and human patients) were received in media (DMEM) on ice and minced in a 10 cm dish (on ice) using sterile forceps and scalpel. Minced tumor was resuspended in DMEM ([…], […] sodium pyruvate, 1:100 penicillin-streptomycin) (Corning CellGro, Manassas, Va.) +10% FBS (Gemini Bio-Products, West Sacramento, Calif.), 100 U/mL collagenase type IV (Life Technologies, Carlsbad, Calif.), and 15 mM HEPES (Life Technologies, Carlsbad, Calif.), except for CT26 tumors that were prepared in RPMI. Samples were pelleted and resuspended in 10-20 mL media. Red blood cells were removed from visibly bloody samples using RBC Lysis Buffer (Boston Bio-Products, Ashland, Mass.). […]
Two multiplex assays were performed utilizing a bead-based immunoassay approach, the Bio-Plex Pro™ Human Cytokine 40-plex Assay (Cat #171AK99MR2) and Bio-Plex Pro™ Mouse Cytokine Panel 1, 23-plex (Cat #M60009RDPD) on a Bio-plex 200 system (Cat #171000201). […] Fold changes relative to the MDOT/PDOT control were calculated and plotted as log 2FC. Lower and upper limits of quantitation (LLOQ/ULOQ) were imputed from standard curves for cytokines above or below detection. […]

[2] = tested on: human CD4+ and CD8+ T cells; assay: IL-2 secretion by anti-CD3/anti-CD28 stimulated T cells; assay type: cell-based; conditions: dose-titration, 24 hours
Procedure: (§1) Freshly isolated human CD4+ and CD8+ T cells were obtained from AllCells (Alameda, Calif., USA). Cells were spun down and resuspended in serum free Xvivo15 media (Lonza Walkersville, Inc., Chicago, Ill., USA) supplemented with 5 ng/mL […] and incubated overnight at 37° C. Cells were plated on anti-CD3 coated plates (5 μg/mL OKT3, eBioscience, Dallas, Tex., USA, overnight) with 2 μg/mL anti-CD28 (eBioscience, Dallas, Tex., USA). Cells are treated in replicate plates with a dose-titration of Compound 1 for 24 hours for IL-2 and 96 hours for IFNγ. IL-2 and IFNγ in the supernatant were measured using single- or multi-plex immunoassay (Mesoscale Discovery, Rockville, Md., USA). Jurkat T cell leukemia cells (clone E61 obtained from ATCC) plated on anti-CD3 coated plates were treated with a dose titration of Compound 1 for 24 hours. IL-2 in the supernatant was measured as described above.

[3] = tested on: CT26 allograft; assay: CT26 allograft, Compound 1 and anti-PD-L1 combination in vivo; parameters: species or system mouse; conditions: Compound 1 40 mg/kg oral gavage daily + anti-PD-L1 10 mg/kg every 5 days
Procedure: (§2) Combination studies were performed by vivoPharm (Hummelstown, Pa., USA). All procedures used in the performance of these studies were carried out in accordance with vivoPharm's Standard Operating Procedures, with particular reference to US_SOPvP_EF0314 “General Procedures for Efficacy Studies.” CT26 colon carcinoma cells (1×10^6 cells/mouse in 100 μL, passage 2-3) were re-suspended in serum-free DMEM and implanted in the upper right flank of 11-12 week old female Balb/c mice (Charles River Laboratories). Mice were randomized into four groups of 10 using a matched pair distribution method based on tumor size for CT26. Treatment was initiated 12 days post-inoculation with mean tumor volume at start of dosing of 125.85 mm^3. Vehicle or Compound 1 (40 mg/kg) was administered by oral gavage daily for 26 days and isotype control or a reverse chimera anti-PD-L1 cloned from literature reports (e.g., Deng, R. et al. MAbs (2016), the content of which is incorporated herein by reference in entirety) and placed into a mouse IgG1 framework (10 mg/kg) was administered every 5 days for a total of six doses. Investigators were not blinded to treatment groups. […] Mice were sacrificed on Day 13 and lung metastases were quantified (small ≤1 mm, medium >1 mm and ≤3 mm, large >3 mm). No large lung metastases were detected.

[4] = tested on: Jurkat T cell leukemia cells; assay: IL-2 secretion by Jurkat cells on anti-CD3 coated plates; assay type: cell-based; conditions: dose titration, 24 hours
Procedure: as §1

[5] = tested on: CT26 and EMT6 cells; assay: Re-implantation of CT26 and EMT6 cells into mice with exceptional responses (immunologic memory); assay type: in vivo, mouse; conditions: previous αPD-L1 + Compound 1
Procedure: as §2

## N#Cc1cc(-c2ncnc(Nc3ccc(N4CCN(C5COC5)CC4)cc3)n2)ccc1OC1CCOCC1 [Compound 1, 5-(4-((4-(4-(oxetan-3-yl)piperazin-1-yl)phenyl)amino)-1,3,5-triazin-2-yl)-2-((tetrahydro-2H-pyran-4-yl)oxy)benzonitrile]
[1]
  immune suppressive cytokine elaboration by CT26 cell line spheroids: effectively blocked
[2]
  secretion of IL-2 from purified CD4+ and CD8+ T cells: enhanced secretion
[3]
  survival, CT26 allograft, combination vs Cmpd1 or anti-PD-L1 alone: longer survival
  tumour control, CT26 allograft, combination vs Cmpd1 or anti-PD-L1 alone: greater tumour control
[4]
  secretion of IL-2 from Jurkat cells: enhanced secretion
[5]
  growth of reimplanted CT26 in mice with exceptional responses to combination therapy: no growth
